Read-outs that look alike come from different tables or passages of the source.
Experiments:
[1] = molecular target: GDP-bound KRAS protein (aa 1-169), containing both G12C and C118A amino acid substitutions (Homo sapiens, UniProt P01116, C118A/G12C); assay: Coupled nucleotide exchange assay (SOS-mediated, AlphaScreen); type: biochemical
Description: Coupled Nucleotide Exchange Assay:
For all subsequent steps, DTT was added to the reaction buffer at a final concentration of 1 mM. […] The assay plates were then read on a plate reader measuring luminescence signal. Signal intensity of compound-containing wells were normalized to DMSO control, and data were analyzed using a 4-parameter logistic model to calculate IC50 values.

[2] = tested on: MIA PaCa-2 (human pancreatic carcinoma) cells; assay: Cell viability assay (CellTiter-Glo), MIA PaCa-2; type: cell-based; conditions: 72 h
Description: (§1) MIA PaCa-2 (human pancreatic carcinoma; ATCC CRL-1420) or A549 (human lung carcinoma; ATCC CCL-185) cells were cultured in RPMI 1640 medium containing 10% fetal bovine serum and 1× penicillin/streptomycin/L-glutamine. Cells were seeded in 384-well plates at a density of 1.67E+04 cells/mL and incubated at 37° C., 5% CO2, overnight. Serially-diluted compound or DMSO was added to the cells, and plates were incubated at 37° C., 5% CO2 for 72 h. Cell viability was measured using a CellTiter-Glo® Luminescent Cell Viability Assay kit (Promega) according to the manufacturer's protocol. The luminescence signal of treated samples was normalized to DMSO control, and data were analyzed using a 4-parameter logistic model to calculate IC50 values.

[3] = tested on: A549 (human lung carcinoma) cells; assay: Cell viability assay (CellTiter-Glo), A549; type: cell-based; conditions: 72 h
Description: as §1

[4] = 2 h compound pre-incubation, read-out: Avg 2 h Coupled exchange IC50
[5] = 20 h compound pre-incubation (values marked * in Table 6), read-out: Avg 20 h Coupled exchange IC50

Sequence of GDP-bound KRAS protein (aa 1-169), containing both G12C and C118A amino acid substitutions (P01116 1-169 isoform P01116-2 G12C/C118A): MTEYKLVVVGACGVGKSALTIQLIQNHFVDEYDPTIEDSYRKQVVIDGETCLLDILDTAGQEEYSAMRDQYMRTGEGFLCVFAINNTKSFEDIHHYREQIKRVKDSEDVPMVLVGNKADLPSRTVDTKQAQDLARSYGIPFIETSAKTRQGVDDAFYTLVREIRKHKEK

| SMILES | IC50 [1, 4] | IC50 [2] | IC50 [3] | IC50 [1, 5] |
| --- | --- | --- | --- | --- |
| C=CC(=O)N1CC2(CCN(c3nc4c(c(N[C@H](Cc5nnc(C)o5)CC(C)C)n3)CCC(C)(C)C4)C2)C1 [Example 1-52, 1-(6-(7,7-dimethyl-4-(((2S)-4-methyl-1-(5-methyl-1,3,4-oxadiazol-2-yl)-2-pentanyl)amino)-5,6,7,8-tetrahydro-2-quinazolinyl)-2,6-diazaspiro[3.4]octan-2-yl)-2-propen-1-one] | 0.039 µM | 1.41 µM | > 5 µM |  |
| C=CC(=O)N1CC2(CCN(c3nc4c(c(N[C@@H](CC(=O)NC)c5cccc(C#N)c5)n3)CCCC4)C2)C1 (single isomer, unassigned) [Example 1-21-1] | 9.085 µM | 10.5 µM | > 25 µM |  |
| C=CC(=O)N1CC2(CCN(c3nc(N[C@H](CC(=O)NC)CC(C)C)c4nn(C)cc4n3)C2)C1 [Example 1-10, (3S)-N,5-dimethyl-3-((2-methyl-5-(2-(2-propenoyl)-2,6-diazaspiro[3.4]octan-6-yl)-2H-pyrazolo[4,3-d]pyrimidin-7-yl)amino)hexanamide] | 0.916 µM | 3.63 µM | > 25 µM |  |
| C=CC(=O)N1CC2(CCN(c3nc(N[C@H](CC(=O)NC)CC(C)C)c4ncc(C5CC5)cc4n3)C2)C1 [Example 1-38, (3S)-3-((7-cyclopropyl-2-(2-(2-propenoyl)-2,6-diazaspiro[3.4]octan-6-yl)pyrido[3,2-d]pyrimidin-4-yl)amino)-N,5-dimethylhexanamide] | 0.06 µM | 0.959 µM | > 5 µM |  |
| C=CC(=O)N1CC2(CCN(c3nc4c(c(N[C@H](Cc5cc(C)on5)CC(C)C)n3)CCC(C)(C)C4)C2)C1 [Example 1-53, 1-(6-(7,7-dimethyl-4-(((2S)-4-methyl-1-(5-methyl-1,2-oxazol-3-yl)-2-pentanyl)amino)-5,6,7,8-tetrahydro-2-quinazolinyl)-2,6-diazaspiro[3.4]octan-2-yl)-2-propen-1-one] | 0.024 µM | 0.994 µM | > 5 µM |  |
| C=CC(=O)N1CC2(CCN(c3nc(N[C@H](CC(=O)NC)CC(C)C)c4ccc(C(F)(F)F)cc4n3)C2)C1 [Example 1-35, (3S)-N,5-dimethyl-3-((2-(2-(2-propenoyl)-2,6-diazaspiro[3.4]octan-6-yl)-7-(trifluoromethyl)-4-quinazolinyl)amino)hexanamide] | 0.142 µM | 0.179 µM | 10.5 µM |  |
| C=CC(=O)N1CC2(CCN(c3nc(N[C@H](CC(=O)NC)CC(C)C)c4occc4n3)C2)C1 [Example 1-7, (3S)-N,5-dimethyl-3-((2-(2-(2-propenoyl)-2,6-diazaspiro[3.4]octan-6-yl)furo[3,2-d]pyrimidin-4-yl)amino)hexanamide] |  | 58.1 µM | > 5 µM | 0.494 µM |
| C=CC(=O)N1CC2(CCN(c3nc4c(c(N[C@H](CC(=O)NC)CC(C)C)n3)OCCC4)C2)C1 [Example 1-31, (3S)-N,5-dimethyl-3-((2-(2-(2-propenoyl)-2,6-diazaspiro[3.4]octan-6-yl)-7,8-dihydro-6H-pyrano[3,2-d]pyrimidin-4-yl)amino)hexanamide] | 0.428 µM | 0.261 µM | > 25 µM |  |
| C=CC(=O)N1CC2(CCN(c3nc4c(c(N[C@H](CC(=O)NC)CC(C)C)n3)COC4)C2)C1 [Example 1-13, (3S)-N,5-dimethyl-3-((2-(2-(2-propenoyl)-2,6-diazaspiro[3.4]octan-6-yl)-5,7-dihydrofuro[3,4-d]pyrimidin-4-yl)amino)hexanamide] |  | > 5 µM | > 5 µM | 5.85 µM |
| C=CC(=O)N1CC2(CCN(c3nc4c(c(N[C@H](Cc5nnc(C)o5)CC(C)C)n3)CCCC4)C2)C1 [Example 1-22, 1-(6-(4-(((2S)-4-methyl-1-(5-methyl-1,3,4-oxadiazol-2-yl)-2-pentanyl)amino)-5,6,7,8-tetrahydro-2-quinazolinyl)-2,6-diazaspiro[3.4]octan-2-yl)-2-propen-1-one] | 0.83 µM | 0.279 µM | > 25 µM |  |
| C=CC(=O)N1CC2(CCN(c3nc(N[C@H](CC(=O)NC)CC(C)C)c4ncccc4n3)C2)C1 [Example 1-37, (3S)-N,5-dimethyl-3-((2-(2-(2-propenoyl)-2,6-diazaspiro[3.4]octan-6-yl)pyrido[3,2-d]pyrimidin-4-yl)amino)hexanamide] | 0.743 µM | 0.632 µM | > 25 µM |  |
| C=CC(=O)N1CC2(CCN(c3nc4c(c(N[C@H](Cc5c[nH]nn5)CC(C)C)n3)CCC(C)(C)C4)C2)C1 [Example 1-55, 1-(6-(7,7-dimethyl-4-(((2S)-4-methyl-1-(1H-1,2,3-triazol-4-yl)-2-pentanyl)amino)-5,6,7,8-tetrahydro-2-quinazolinyl)-2,6-diazaspiro[3.4]octan-2-yl)-2-propen-1-one] | 0.057 µM | 1.27 µM | > 5 µM |  |
| C=CC(=O)N1CC2(CCN(c3nc(N[C@H](CC(=O)NC)CC(C)C)c4ncc(OC)cc4n3)C2)C1 [Example 1-42, (3S)-3-((7-methoxy-2-(2-(2-propenoyl)-2,6-diazaspiro[3.4]octan-6-yl)pyrido[3,2-d]pyrimidin-4-yl)amino)-N,5-dimethylhexanamide] | 0.022 µM | 0.296 µM | > 5 µM |  |
| C=CC(=O)N1CC2(CCN(c3nc4c(c(N[C@H](CC(=O)NC)c5cccc(C#N)c5)n3)CCCC4)C2)C1 (single isomer, unassigned) [Example 1-21-2] | 129.95 µM | 14 µM | > 25 µM |  |
| C=CC(=O)N1CC2(C[C@H](CO)N(c3nc4c(c(N[C@H](CC(=O)NC)CC(C)C)n3)CCCC4)C2)C1 (single isomer, unassigned) [Example 1-24-1] | 4.58 µM | 5.99 µM | > 25 µM |  |
| C=CC(=O)N1CC2(CCN(c3nc(N[C@H](CC(=O)NC)CC(C)C)c4ccc(C(C)C)cc4n3)C2)C1 [Example 1-20, (3S)-N,5-dimethyl-3-((7-(2-propanyl)-2-(2-(2-propenoyl)-2,6-diazaspiro[3.4]octan-6-yl)-4-quinazolinyl)amino)hexanamide] | 0.084 µM | 0.075 µM | 21.6 µM |  |
| C=CC(=O)N1CC2(CCN(c3nc4c(c(N[C@@H](CC(C)C)C(=O)NC)n3)CCCC4)C2)C1 [Example 1-60, (S)-2-((2-(2-acryloyl-2,6-diazaspiro[3.4]octan-6-yl)-5,6,7,8-tetrahydroquinazolin-4-yl)amino)-N,4-dimethylpentanamide] | 8.28 µM | 7.06 µM | 17.9 µM |  |
| C=CC(=O)N1CC2(CCN(c3nc4c(c(N[C@H](Cc5noc(C)n5)CC(C)C)n3)CCC(C)(C)C4)C2)C1 [Example 1-44, 1-(6-(7,7-dimethyl-4-(((2S)-4-methyl-1-(5-methyl-1,2,4-oxadiazol-3-yl)-2-pentanyl)amino)-5,6,7,8-tetrahydro-2-quinazolinyl)-2,6-diazaspiro[3.4]octan-2-yl)-2-propen-1-one] | 0.38 µM | 0.316 µM | 21.9 µM |  |
| C=CC(=O)N1CC2(CCN(c3nc4c(c(N[C@H](CC(=O)NC)CC(C)C)n3)CCC(C)C4)C2)C1 (stereo partly drawn) [Example 1-3, (3S)-N,5-dimethyl-3-((7-methyl-2-(2-(2-propenoyl)-2,6-diazaspiro[3.4]octan-6-yl)-5,6,7,8-tetrahydro-4-quinazolinyl)amino)hexanamide] | 0.216 µM | 0.217 µM | 32.6 µM |  |
| C=CC(=O)N1CC2(CCN(c3nc4c(c(N[C@H](Cc5ncc[nH]5)CC(C)C)n3)CCCC4)C2)C1 [Example 1-23, 1-(6-(4-(((2S)-1-(1H-imidazol-2-yl)-4-methyl-2-pentanyl)amino)-5,6,7,8-tetrahydro-2-quinazolinyl)-2,6-diazaspiro[3.4]octan-2-yl)-2-propen-1-one] | 1.16 µM | 2.83 µM | > 5 µM |  |
| C=CC(=O)N1CC2(C1)CN(c1nc(N[C@H](CC(=O)NC)CC(C)C)c3ccccc3n1)CC2F (stereo partly drawn) [Example 1-27, (3S)-3-((2-(8-fluoro-2-(2-propenoyl)-2,6-diazaspiro[3.4]octan-6-yl)-4-quinazolinyl)amino)-N,5-dimethylhexanamide] | 3.49 µM | > 5 µM | > 5 µM |  |
| C=CC(=O)N1CC2(C1)CN(c1nc(N[C@H](CC(=O)NC)CC(C)C)c3ccccc3n1)CC2(F)F [Example 1-18, (3S)-3-((2-(8,8-difluoro-2-(2-propenoyl)-2,6-diazaspiro[3.4]octan-6-yl)-4-quinazolinyl)amino)-N,5-dimethylhexanamide] | 0.334 µM | 0.971 µM | 6.25 µM |  |
| C=CC(=O)N1CC2(CCN(c3nc4c(c(N[C@H](CC(=O)NC)Cc5ccccc5)n3)CCC(C)(C)C4)C2)C1 [Example 1-50, (3S)-3-((7,7-dimethyl-2-(2-(2-propenoyl)-2,6-diazaspiro[3.4]octan-6-yl)-5,6,7,8-tetrahydro-4-quinazolinyl)amino)-N-methyl-4-phenylbutanamide] | 1.31 µM | 0.587 µM | > 25 µM |  |

From patent US20230406860A1, “HETEROCYCLIC SPIRO COMPOUNDS AND METHODS OF USE” (AMGEN INC., priority 2020, published 2023)
